Data from patent US20230114728A1 (Venatorx Pharmaceuticals, Inc., priority 2019, published 2023).
pEC50: −log10 of the molar value.

Legend:
E. coli K12 PBP2 = biological target: T1, E. coli K12 PBP2 (Escherichia coli, UniProt P0AD65); assay: Bocillin-FL fluorescence polarization competition binding assay, E. coli PBP2
T1 construct: made in house
Source text: (§1) Example I: Experimental Method for Penicillin-Binding Protein Binding Assays with Bocillin-FL Via Fluorescence Polarization
(§2) To determine the ability of boronic acid-based test PBP inhibitors to bind Penicillin Binding Proteins (PBPs), Bocillin-FL (fluorescently-labeled penicillin V; ThermoFisher Scientific) was used in a fluorescence polarization (FP) competition binding assay to assess inhibitor binding to PBP2, PBP3 or PBP4 from Escherichia coli (K12), PBP3 from Pseudomonas aeruginosa (PA01), PBP1a, PBP2 and PBP3 from Acinetobacter baumannii (ATCC 19606), and PBP2 from Neiserria gonorrheae (FA19). PBPs were cloned and purified as described previously (E. coli PBPs, King, D. T, et al., ACS Infectious Diseases 2015, 1, 175-184; P. aeruginosa PBP3, Han et. al., PNAS 2010, 107 (51), 22002-22007; A. baumannii PBPs, Penwell et. al., Antimicrob. Agents Chemother. 2015, 59 (3), 1680-1689; N. gonorrhoeae PBP2, Singh et. al., J Biol. Chem. 2019, 294 (38), 14020-14032). To establish assay conditions for competition binding, enzyme titration/saturation binding experiments were initially performed. Bocillin-FL was prepared at 0.2 μM in a buffer comprised of 50 mM Hepes (pH 8.0), 300 mM NaCl and 5% (v/v) glycerol for reactions with E. coli, P. aeruginosa and N. gonorrhoeae PBPs, and 25 mM Tris (pH 8.0), 200 mM NaCl and 10% (v/v) glycerol and 0.005% (v/v) Tween 20 for reactions with A. baumannii PBPs. Saturation binding was performed by mixing 40 μl of PBP solutions ranging in concentrations from 0-24 μM with 40 μl of the 0.2 μM Bocillin-FL solution, in individual wells of a black 384-well microplate. FP was measured immediately upon mixing (Excitation, 490 nm; Emission, 520 nm; g-factor, 0.96), using a Cytation3 (BioTek) microplate reader and measured continuously for up to 120 minutes. […] Bocillin-FL was added and the FP immediately measured for up to 60 minutes (90 minutes for E. coli PBP2). […]

E. coli K12 PBP4 = biological target: T2, E. coli K12 PBP4 (Escherichia coli, UniProt P24228); assay: Bocillin-FL fluorescence polarization competition binding assay, E. coli PBP4; conditions: fluorescence polarization competition binding assay using Bocillin-FL; read-out: E. coli K12 PBP4 Potency (EC50)
T2 construct: made in house
T2 sequence (P24228 21-477): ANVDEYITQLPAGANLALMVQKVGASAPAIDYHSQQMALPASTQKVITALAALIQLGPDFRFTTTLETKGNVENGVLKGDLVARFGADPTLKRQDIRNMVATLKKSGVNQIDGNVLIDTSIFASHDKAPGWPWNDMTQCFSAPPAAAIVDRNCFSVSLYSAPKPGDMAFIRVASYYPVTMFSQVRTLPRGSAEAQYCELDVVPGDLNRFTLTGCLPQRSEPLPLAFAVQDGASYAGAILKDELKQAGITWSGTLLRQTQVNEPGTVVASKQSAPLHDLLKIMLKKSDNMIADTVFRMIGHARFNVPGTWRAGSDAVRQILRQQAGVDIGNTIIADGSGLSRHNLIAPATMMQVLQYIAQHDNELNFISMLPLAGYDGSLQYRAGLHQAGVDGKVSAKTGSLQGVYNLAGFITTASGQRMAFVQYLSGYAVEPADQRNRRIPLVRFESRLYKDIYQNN
Source text: as §1, §2

E. coli K12 PBP1b = biological target: T3, E. coli K12 PBP1b (Escherichia coli, UniProt P02919); assay: Radioligand competition binding assay with 14C-labeled boronic acid probe, E. coli PBP1b; conditions: competition binding assay using 14C-labeled boronic acid probe; read-out: E. coli K12 PBP1b EC50
T3 construct: made in house
T3 sequence (P02919 whole entry): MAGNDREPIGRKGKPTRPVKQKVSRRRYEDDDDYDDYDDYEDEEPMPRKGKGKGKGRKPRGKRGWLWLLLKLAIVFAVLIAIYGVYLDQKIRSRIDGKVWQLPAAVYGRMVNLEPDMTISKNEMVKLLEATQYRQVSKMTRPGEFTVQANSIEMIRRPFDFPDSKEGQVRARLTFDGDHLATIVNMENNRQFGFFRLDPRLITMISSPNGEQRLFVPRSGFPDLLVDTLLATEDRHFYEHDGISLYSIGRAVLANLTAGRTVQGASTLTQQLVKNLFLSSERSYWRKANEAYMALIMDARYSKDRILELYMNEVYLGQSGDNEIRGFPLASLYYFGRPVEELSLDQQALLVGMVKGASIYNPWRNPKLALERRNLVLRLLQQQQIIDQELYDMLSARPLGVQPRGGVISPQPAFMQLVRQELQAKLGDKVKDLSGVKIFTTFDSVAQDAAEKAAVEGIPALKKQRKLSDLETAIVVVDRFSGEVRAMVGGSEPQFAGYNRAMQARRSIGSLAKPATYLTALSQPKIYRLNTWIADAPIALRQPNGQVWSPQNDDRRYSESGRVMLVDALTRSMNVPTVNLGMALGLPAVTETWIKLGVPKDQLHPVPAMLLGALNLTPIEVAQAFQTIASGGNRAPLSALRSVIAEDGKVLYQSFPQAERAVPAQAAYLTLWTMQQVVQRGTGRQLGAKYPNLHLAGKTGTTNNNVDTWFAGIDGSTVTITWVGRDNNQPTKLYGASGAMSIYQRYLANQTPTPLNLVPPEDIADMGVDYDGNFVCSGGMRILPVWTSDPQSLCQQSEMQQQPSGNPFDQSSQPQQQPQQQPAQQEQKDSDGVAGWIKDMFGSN
Source text: Example II: Experimental Method to Assess Binding to Penicillin-Binding Proteins: Radioligand Competition Binding Assay
To determine the ability of boronic acid-based test PBP inhibitors to bind Penicillin Binding Proteins (PBPs), a radio-labelled boronic acid PBP inhibitor:
was used in competition binding assays to determine boronic acid PBP inhibitor binding to PBP1a or PBP1b from Escherichia coli. PBP1a and PBP1b were purified as described previously (Bertsche, U.; et al., J Biol. Chem. 2005, 280 (45), 38096-38101; Born, P.; et al., J Biol. Chem. 2006. 281 (37), 26985-26993). To establish assay conditions for competition binding, an enzyme titration/saturation binding experiment was performed. Saturation binding was performed in a buffer comprised of 20 mM Tris (pH 7.5), 500 mM NaCl and 0.1% (v/v) TritonX-100, with PBP1a/PBP1b at a final concentration of 0.1 μM and Compound A at final concentrations ranging from 0-100 μM. Mixtures were incubated for 60 minutes, then applied to Zeba Spin Desalting columns or plates (ThermoFisher Scientific) and centrifuged at 1000-1500×g for 2 minutes. The flow through, containing PBP bound with Compound A, was recovered and 100 μL mixed with 5 mL of UltimaGold liquid scintillation cocktail (Perkin Elmer), and the radioactivity counted using a Beckman Coulter LS 6500 Multipurpose scintillation counter. PBP binding of Compound A approached saturation at 20 μM of ^14C-labeled probe. The competition binding assay was validated using the beta-lactam ampicillin, with Compound A at a final concentration of 20 μM, PBP1a/PBP1b at a final concentration of 0.1 μM. PBP1a/PBP1b was incubated with ampicillin in a 96-well microplate for 60 minutes, then Compound A was added and the mixtures incubated for an additional 60 minutes. The mixtures were then applied to Zeba Spin desalting plates and centrifuged at 1000×g for 2 minutes. The flow through was recovered and 100 μl mixed with 5 ml of UltimaGold liquid scintillation cocktail and the radioactivity counted. […] Binding assays with boronic acid PBP inhibitors were performed in an identical fashion. […]

T1 sequence (P0AD65 whole entry): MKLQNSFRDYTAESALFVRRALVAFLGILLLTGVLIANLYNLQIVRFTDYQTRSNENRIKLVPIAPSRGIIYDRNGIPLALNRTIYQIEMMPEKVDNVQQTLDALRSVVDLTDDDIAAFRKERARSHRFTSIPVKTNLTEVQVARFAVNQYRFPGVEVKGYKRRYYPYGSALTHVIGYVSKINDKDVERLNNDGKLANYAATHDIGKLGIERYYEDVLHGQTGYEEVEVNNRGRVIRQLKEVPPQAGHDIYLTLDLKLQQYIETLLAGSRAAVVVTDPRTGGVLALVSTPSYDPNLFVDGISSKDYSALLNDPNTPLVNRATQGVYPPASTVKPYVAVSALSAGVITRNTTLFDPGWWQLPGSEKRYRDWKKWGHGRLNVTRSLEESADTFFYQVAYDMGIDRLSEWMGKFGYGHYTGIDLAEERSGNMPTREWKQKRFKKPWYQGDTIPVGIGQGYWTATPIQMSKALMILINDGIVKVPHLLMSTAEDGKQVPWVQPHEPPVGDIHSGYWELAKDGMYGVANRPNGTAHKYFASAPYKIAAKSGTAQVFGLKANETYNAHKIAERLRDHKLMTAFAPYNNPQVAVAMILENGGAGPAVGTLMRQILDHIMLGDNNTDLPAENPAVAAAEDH

SMILES: CCN1CCN(C(=O)NC(C(=O)N[C@H]2Cc3ccc(SCc4ccc(O)cc4)c(C(=O)O)c3OB2O)c2csc(N)n2)C(=O)C1=O (stereo partly drawn) [Example 55, (3R)-3-(2-(2-aminothiazol-4-yl)-2-(4-ethyl-2,3-dioxopiperazine-1-carboxamido)acetamido)-2-hydroxy-7-((4-hydroxybenzyl)thio)-3,4-dihydro-2H-benzo[e][1,2]oxaborinine-8-carboxylic acid]
- pEC50 (E. coli K12 PBP2): 3.30 to 4.52
- pEC50 (E. coli K12 PBP4): 3.30 to 4.52
- pEC50 (E. coli K12 PBP1b): < 4.00

SMILES: CCN1CCN(C(=O)NC(C(=O)N[C@H]2Cc3ccc(S)c(C(=O)O)c3OB2O)c2csc(N)n2)C(=O)C1=O (stereo partly drawn) [Example 54, (3R)-3-(2-(2-aminothiazol-4-yl)-2-(4-ethyl-2,3-dioxopiperazine-1-carboxamido)acetamido)-2-hydroxy-7-mercapto-3,4-dihydro-2H-benzo[e][1,2]oxaborinine-8-carboxylic acid]
- pEC50 (E. coli K12 PBP2): 3.30 to 4.52
- pEC50 (E. coli K12 PBP4): 3.30 to 4.52
- pEC50 (E. coli K12 PBP1b): 4.00 to 5.00
